Usually IC50 stands for the point on the concentration scale where inhibition reaches its midpoint.

The record followed here is BindingDB's records for doi:10.1016/j.ejmech.2011.10.051 (University of The Mediterranean, 2012).

Test [1] in a line: Inhibition of Met-mediated tumorigenesis in HGF-stimulated human HepG2 cells assessed as impairment in anchorage-independent growth by soft agar growth assay.
A short description of test [2]: Inhibition of Met-mediated tumorigenesis in HGF-stimulated human GTL16 cells assessed as impairment in anchorage-independent growth by soft agar growth assay.
Test [3] in a line: Inhibition of Met-mediated scattering in HGF-stimulated […] cells pre-incubated overnight prior to HGF stimulation for 24 hrs measured after 24 to 48 hrs.
Test [4] is described as follows: Inhibition of TPR-fused MET-mediated mouse BA/F3 cell proliferation after 48 hrs by cell titre blue based spectrophotometry.

On to `Cc1[nH]c(/C=C2\C(=O)Nc3ccc(S(=O)(=O)N(C)c4cccc(Cl)c4)cc32)c(C)c1C(=O)N1CCN(C)CC1` [(3Z)-N-(3-CHLOROPHENYL)-3-({3,5-DIMETHYL-4-[(4-METHYLPIPERAZIN-1-YL)CARBONYL]-1H-PYRROL-2-YL}METHYLENE)-N-METHYL-2-OXOINDOLINE-5-SULFONAMIDE], for which the values for the 50% inhibitory concentration (IC50) in test [1], in test [2] and in test [3] were 1560 nM, 228 nM and 152 nM, respectively.
Turning to `O=C(Cc1cc(C(F)(F)F)cc(C(F)(F)F)c1)N[C@H](Cc1ccccc1)C(=O)Nc1ccc(-c2cn3c(n2)sc2ccccc23)cc1`, the IC50 worked out at 620 nM in test [1], 1190 nM in test [2] and 206 nM in test [3].
As for `O=C(Cc1cc(C(F)(F)F)cc(C(F)(F)F)c1)N[C@@H](Cc1ccccc1)C(=O)Nc1ccc(-c2cn3c(n2)sc2ccccc23)cc1`, the IC50 in test [4] came to 4000 nM; in test [1] it was 321 nM; in test [2], 811 nM; in test [3] it was 171 nM.
